{"source": "patent US12077503B2", "about": "“Substituted cyclic amides and their use as herbicides” (FMC CORPORATION, priority 2015, dated 2024)", "assay_type_in_all_cases": "in vivo", "key": {"[1]": {"test_system": "sedge, umbrella (small-flower umbrella sedge, Cyperus difformis)", "assay": "Test B flooded paddy test", "conditions": "Flood, 250 g ai/ha; 0 to 100 scale where 0 is no effect and 100 is complete control; 13 to 15 d", "summary_of_the_method": "(§1)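 Compound goes directly into floodwater once pots are flooded 3 cm above soil, targeting plants at two leaves; the water depth is then held for the test duration. Plants sit 13–15 d in a greenhouse and are rated visually, 100 denoting complete control.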"}, "rice (Oryra sativa)": {"test_system": "rice (Oryra sativa)", "assay": "Test B flooded paddy test", "conditions": "Flood, 250 g ai/ha; 0 to 100 scale where 0 is no effect and 100 is complete control; 13 to 15 d", "summary_of_the_method": "as §1"}, "[2]": {"test_system": "ducksalad (Heteranthera limosa)", "assay": "Test B flooded paddy test", "conditions": "Flood, 250 g ai/ha; 0 to 100 scale where 0 is no effect and 100 is complete control; 13 to 15 d", "summary_of_the_method": "as §1"}, "[3]": {"test_system": "barnyardgrass (Echinochloa crus-galli)", "assay": "Test B flooded paddy test", "conditions": "Flood, 250 g ai/ha; 0 to 100 scale where 0 is no effect and 100 is complete control; 13 to 15 d", "summary_of_the_method": "as §1"}, "[4]": {"test_system": "giant foxtail (Setaria faberii)", "assay": "Test A postemergence", "conditions": "postemergence", "summary_of_the_method": "(§2)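 Ratings of 0 (no effect) to 100 (complete control) come from visual comparison with untreated controls roughly 10 d after treatment. Test chemicals, formulated in a non-phytotoxic solvent mixture with surfactant, were applied either as a preemergence directed soil spray on seeded soil or postemergence to one- to two-leaf plants 2 to 10 cm tall.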"}, "[5]": {"test_system": "ryegrass, Italian (Italian ryegrass, Lolium multiflorum)", "assay": "Test A postemergence", "conditions": "postemergence", "summary_of_the_method": "as §2"}, "corn (Zea mays)": {"test_system": "corn (Zea mays)", "assay": "Test A postemergence", "conditions": "postemergence", "summary_of_the_method": "as §2"}, "[6]": {"test_system": "Galium (catchweed bedstraw, Galium aparine)", "assay": "Test A postemergence", "conditions": "postemergence", "summary_of_the_method": "as §2"}, "Kochia (Kochia scoparia) [7]": {"test_system": "Kochia (Kochia scoparia)", "assay": "Test A postemergence", "conditions": "postemergence", "summary_of_the_method": "as §2"}, "[8]": {"test_system": "blackgrass (Alopecurus myosuroides)", "assay": "Test A postemergence", "conditions": "postemergence", "summary_of_the_method": "as §2"}, "[9]": {"test_system": "ragweed (common ragweed, Ambrosia elatior)", "assay": "Test A postemergence", "conditions": "postemergence", "summary_of_the_method": "as §2"}, "[10]": {"test_system": "barnyardgrass (Echinochloa crus-galli)", "assay": "Test A postemergence", "conditions": "postemergence", "summary_of_the_method": "as §2"}, "[11]": {"test_system": "pigweed (Amaranthus retroflexus)", "assay": "Test A postemergence", "conditions": "postemergence", "summary_of_the_method": "as §2"}, "[12]": {"test_system": "wheat (Triticum aestivum)", "assay": "Test A postemergence", "conditions": "postemergence", "summary_of_the_method": "as §2"}, "[13]": {"test_system": "giant foxtail (Setaria faberii)", "assay": "Test A preemergence", "summary_of_the_method": "as §2"}, "[14]": {"test_system": "ryegrass, Italian (Italian ryegrass, Lolium multiflorum)", "assay": "Test A preemergence", "summary_of_the_method": "as §2"}, "Kochia (Kochia scoparia) [15]": {"test_system": "Kochia (Kochia scoparia)", "assay": "Test A preemergence", "summary_of_the_method": "as §2"}, "[16]": {"test_system": "ragweed (common ragweed, Ambrosia elatior)", "assay": "Test A preemergence", "summary_of_the_method": "as §2"}, "[17]": {"test_system": "barnyardgrass (Echinochloa crus-galli)", "assay": "Test A preemergence", "summary_of_the_method": "as §2"}, "[18]": {"test_system": "pigweed (Amaranthus retroflexus)", "assay": "Test A preemergence"}, "[19]": {"conditions": "125 g ai/ha, visual injury rating on 0 to 100 scale (0 no effect, 100 complete control), approx. 10 d"}, "[20]": {"conditions": "500 g ai/ha, 0 to 100 scale, 0 no effect, 100 complete control"}, "[21]": {"conditions": "125 g ai/ha, preemergence, 0 to 100 scale (0 no effect, 100 complete control)"}, "[22]": {"conditions": "Preemergence, 500 g ai/ha, visual injury approx. 10 d"}}, "data": [{"smiles": "CN1CC(c2ccc3c(c2)OC(F)(F)O3)C(C(=O)Nc2ccc(F)cc2F)C1=O", "note": "(stereo not drawn) [Compound 444]", "values": [{"measurement": "Plant response rating, Sedge, Umbrella", "setting": "[1]", "value": 0}, {"measurement": "Plant response rating, Rice", "setting": "rice (Oryra sativa)", "value": 0}, {"measurement": "Plant response rating, Ducksalad", "setting": "[2]", "value": 100}, {"measurement": "Plant response rating, Barnyardgrass", "setting": "[3]", "value": 75}, {"measurement": "Foxtail, Giant plant response rating", "setting": "[4]; [19]", "value": 80}, {"measurement": "Plant response rating, Foxtail, Giant", "setting": "[4]; [20]", "value": 80}, {"measurement": "Ryegrass, Italian plant response rating", "setting": "[5]; [19]", "value": 50}, {"measurement": "Plant response rating, Ryegrass, Italian", "setting": "[5]; [20]", "value": 80}, {"measurement": "Corn plant response rating", "setting": "corn (Zea mays); [19]", "value": 60}, {"measurement": "Plant response rating, Corn", "setting": "corn (Zea mays); [20]", "value": 70}, {"measurement": "Galium plant response rating", "setting": "[6]; [19]", "value": 60}, {"measurement": "Plant response rating, Galium", "setting": "[6]; [20]", "value": 70}, {"measurement": "Kochia plant response rating", "setting": "Kochia (Kochia scoparia) [7]; [19]", "value": 40}, {"measurement": "Plant response rating, Kochia", "setting": "Kochia (Kochia scoparia) [7]; [20]", "value": 80}, {"measurement": "Blackgrass plant response rating", "setting": "[8]; [19]", "value": 70}, {"measurement": "Plant response rating, Blackgrass", "setting": "[8]; [20]", "value": 60}, {"measurement": "Ragweed plant response rating", "setting": "[9]; [19]", "value": 20}, {"measurement": "Plant response rating, Ragweed", "setting": "[9]; [20]", "value": 40}, {"measurement": "Barnyardgrass plant response rating", "setting": "[10]; [19]", "value": 80}, {"measurement": "Plant response rating, Barnyardgrass", "setting": "[10]; [20]", "value": 90}, {"measurement": "Pigweed plant response rating", "setting": "[11]; [19]", "value": 50}, {"measurement": "Plant response rating, Pigweed", "setting": "[11]; [20]", "value": 80}, {"measurement": "Wheat plant response rating", "setting": "[12]; [19]", "value": 50}, {"measurement": "Plant response rating, Wheat", "setting": "[12]; [20]", "value": 50}, {"measurement": "Plant response rating, Foxtail, Giant", "setting": "[13]; [21]", "value": 90}, {"measurement": "Foxtail, Giant plant response rating (0 to 100 scale, 0 is no effect, 100 is complete control)", "setting": "[13]; [22]", "value": 90}, {"measurement": "Plant response rating, Ryegrass, Italian", "setting": "[14]; [21]", "value": 40}, {"measurement": "Ryegrass, Italian plant response rating (0 to 100 scale, 0 is no effect, 100 is complete control)", "setting": "[14]; [22]", "value": 90}, {"measurement": "Plant response rating, Kochia", "setting": "Kochia (Kochia scoparia) [15]; [21]", "value": 60}, {"measurement": "Kochia plant response rating (0 to 100 scale, 0 is no effect, 100 is complete control)", "setting": "Kochia (Kochia scoparia) [15]; [22]", "value": 80}, {"measurement": "Plant response rating, Ragweed", "setting": "[16]; [21]", "value": 50}, {"measurement": "Ragweed plant response rating (0 to 100 scale, 0 is no effect, 100 is complete control)", "setting": "[16]; [22]", "value": 80}, {"measurement": "Plant response rating, Barnyardgrass", "setting": "[17]; [21]", "value": 90}, {"measurement": "Barnyardgrass plant response rating (0 to 100 scale, 0 is no effect, 100 is complete control)", "setting": "[17]; [22]", "value": 90}, {"measurement": "Plant response rating, Pigweed", "setting": "[18]; [21]", "value": 80}, {"measurement": "Pigweed plant response rating (0 to 100 scale, 0 is no effect, 100 is complete control)", "setting": "[18]; [22]", "value": 80}]}]}
